From patent US20250222045A1, “BIFIDOBACTERIUM LONGUM SUBSP. INFANTIS, MICROBIAL AGENT AND USE THEREOF” (GUANGZHOU JIYAN COSMETICS TECHNOLOGY CO., LTD., priority 2024, published 2025)

Legend:
[1] = test system: suckling pig skin; test: Exfoliation on excised suckling pig skin (Franz cell), total protein of detached keratinocytes; settings: 50 μL, 24 h, 32 °C
Method: <1> Formulation of cleaning solution (0.1% Triton X-100): 0.1 mL of Triton X-100 was weighed and dissolved in 100 mL of PBS to formulate 0.1% Triton X-100 solution. <2> Formulation of sodium hydroxide solution (12 M): 4.8 g of sodium hydroxide solid was weighed, and added with deionized water to make up to 10 mL, and formulate 12 M sodium hydroxide solution. <1> After being thawed and cleaned, pig skin was fixed between a supply chamber and a receiving chamber of Franz cell, with stratum corneum of the skin facing the supply chamber, and a dermal side facing the receiving chamber. Into the receiving chamber, 7.0 mL of a receiving liquid was added. After suckling pig skin was stretched and fixed well, into the receiving chamber, 1.5 mL of the receiving liquid (PBS) was added through a sample collector, and air was exhausted, so as to make the dermis of the skin be in close contact with the receiving liquid. <2> Samples (as shown in TABLE 24) were added to the skin surface in the supply chamber, where 50 μL of the samples were added to the surface of the pig skin (a PBS buffer solution was added to the surface of the control group as blank control). The samples were evenly spread radially from a central part of the skin towards an edge, and an exposed area of the samples was 3.14 cm^2. Each sample had three parallel replicates. […] Keratinocytes in the cleaning solution were precipitated, supernatant was discarded, and precipitate was re-suspended with 0.5 mL of deionized water. <2> Into the re-suspended liquid, 25 μL of a sodium hydroxide (12 M) solution was added, the keratinocytes were lysed for 30 min in a boiling water bath, and 25 μL of concentrated hydrochloric acid (12 M) was added to neutralize lysis solution. <3> The total protein content was detected according to instructions of a BCA protein assay kit. […] The total protein content in the lysis solution was directly proportional to the quantity of detached keratinocytes. […] GraphPad Prism was applied for plotting, and results were expressed as Mean±SD. Comparison between the groups was statistically analyzed using t-test. […]

[2] = test system: CPD; test: DNA damage repair on UVB-irradiated 3D epidermal skin model, CPD immunohistochemistry; type: cell-based; settings: Filtrate 5%, Lysate 5%, Filtrate + lysate 5%, Retinol 0.1%, Bifida ferment lysate 5%; for CPD Positive cell Rate (%): BC 0.00%, NC 72.14%, smaller values are better; for CPD fluorescence intensity, Down-regulation Rate: vs NC
Method: <1> According to test groups, models were transferred into 6-well plates (added with 0.9 mL of an EpiGrowth culture solution of corresponding groups in advance), and numbers of the test groups were marked on the 6-well plates.
<2> UVB irradiation (a radiation dosage was 600 mJ/cm^2) was performed on the groups requiring UVB irradiation according to the test groups (as shown in TABLE 40). After the irradiation, a sample working solution was evenly distributed on surfaces of the models, and continued to be incubated in a CO2 incubator (37° C., 5% CO2) for 24 h.
<3> After incubation was finished, test substances remaining on surfaces of the models were cleaned with sterile PBS, and residual liquid inside and outside the models was wiped off with a sterile cotton swab.
The models for detection were fixed using 4% paraformaldehyde. After 24 h of fixation, immunohistochemical detection was performed, photographs were taken under a microscope and observed, and pictures were collected and analyzed.
Inhibition rate/down-regulation rate (%)=(negative control group−sample)/negative control group×100%
GraphPad Prism was applied for plotting, and results were expressed as Mean±SD. Comparison between the groups was statistically analyzed using t-test. Statistical analysis was two-tailed. P<0.05 is considered to have a significant difference, and P<0.01 is considered to have an extremely significant difference.
(1) CPD: When a body is exposed to exogenous UV radiation, DNA damage may occur, and this damage may induce body aging. If such DNA damage is not repaired in time, symptoms such as aging of the body may occur.

[3] = test system: type IV collagen; test: Excised skin tissues, combined UVA and UVB irradiation: type IV collagen (IHC); settings: ex vivo skin, 0.1%
Method: (§1) Tissue treatment: Freshly obtained skin tissues were immersed into 75% alcohol to be cleaned for 30 s, and then cleaned in a sterile PBS buffer solution for three times. After the cleaning was finished, the skin was cut into tissue blocks of 24±2 mm^2, with the epidermis facing upwards and the dermis facing downwards, and put into culture moulds; and then the culture moulds were transferred into 6-well plates, with each well being added with 3.7 mL of the culture solution, and cultured in the CO2 incubator (37° C., 5% CO2), with the solution being changed every day.
(§2) Dosing: After the excised skin tissues were cultured for 2 days, irradiation and dosing were started with reference to test groups and corresponding treatment conditions in the table. Irradiation dosages were UVA (30 J/cm^2) and UVB (50 mJ/cm^2). The irradiation was continuously performed for 4 days. After each time of irradiation was completed, the culture solution was replaced with a fresh culture solution, and a dosing treatment was performed. The positive control (VC+VE) was dosed below a liquid surface, and the test sample was does on a surface, with each group being in triplicate. […]
(§3) Statistical analysis of results: GraphPad Prism was applied for plotting, and results were expressed as Mean±SD. Comparison between the groups was statistically analyzed using t-test. […]

[4] = test system: collagen fiber; test: Excised skin tissues, combined UVA and UVB irradiation: collagen fiber (Masson staining); settings: ex vivo skin, 0.1%
Method: as §1
Dosing: After the excised skin tissues were cultured for 2 days, irradiation and dosing were started with reference to test groups and corresponding treatment conditions in the table. Irradiation dosages were UVA (30 J/cm^2) and UVB (50 mJ/cm^2). The irradiation was continuously performed for 4 days. […]
Detection of collagen fiber: the skin tissues having undergone the dosing were fixed using 4% paraformaldehyde. […] Slicing result was recovered, photographed using a microscope, and analyzed using Image-Pro Plus image processing software. […]
as §3

[5] = test system: elastin; test: Excised skin tissues, combined UVA and UVB irradiation: elastin (Victoria Blue staining); settings: ex vivo skin, 0.1%
Method: as §1, §2, §3

[6] = test system: type III collagen; test: Excised skin tissues, combined UVA and UVB irradiation: type III collagen (IHC); settings: ex vivo skin, 0.1%
Method: as §1, §2, §3

[7] = test system: 3D epidermal skin model (EpiKuits®); test: Epidermal atrophy on UVB-irradiated 3D epidermal skin model, tissue morphology H&E, sunburn cells; type: cell-based; settings: Filtrate 5%, Lysate 5%, Filtrate + lysate 5%, Retinol 0.1%, Bifida ferment lysate 5%; for Sunburn cells: EpiKutis 3D epidermal model, UVB 600 mJ/cm^2, then 24 h, H&E, BC 0, NC 10, WY14643 50 μM
Method: [table] <1> According to test groups, models were transferred into 6-well plates (added with 0.9 mL of an EpiGrowth culture solution of corresponding groups in advance), and numbers of the test groups were marked on the 6-well plates. <2> UVB irradiation (a radiation dosage was 600 mJ/cm^2) was performed on the groups requiring UVB irradiation according to the test groups (as shown in TABLE 40). […] <3> After incubation was finished, test substances remaining on surfaces of the models were cleaned with sterile PBS, and residual liquid inside and outside the models was wiped off with a sterile cotton swab. The models for detection of tissue morphology were fixed using 4% paraformaldehyde. After 24 h of fixation, H&E staining detection was performed, photographs were taken under a microscope and observed, and pictures were collected and analyzed. Inhibition rate/down-regulation rate (%)=(negative control group−sample)/negative control group×100% GraphPad Prism was applied for plotting, and results were expressed as Mean±SD. Comparison between the groups was statistically analyzed using t-test. Statistical analysis was two-tailed. P<0.05 is considered to have a significant difference, and P<0.01 is considered to have an extremely significant difference. (2) Epidermal atrophy: Tissue morphology is physiological structure analysis of appearance of tissues after HE staining. The ability of the test substance to resist UVB can be evaluated by analyzing thickness changes of epidermis and growth of four layers of cells on the surface after use of the test substance.

[8] = test system: type XVII collagen; test: Excised skin tissues, combined UVA and UVB irradiation: type XVII collagen (IHC); settings: ex vivo skin, 0.1%
Method: as §1, §2, §3

[9] = test system: hyaluronic acid; test: Excised skin tissues, combined UVA and UVB irradiation: hyaluronic acid (immunofluorescence); settings: ex vivo skin, 0.1%
Method: as §1, §2, §3

[10] = BC 0.326, Filtrate 3%, Mandelic acid 5%, Salicylic acid 2%
[11] = 30 J/cm^2 UVA + 50 mJ/cm^2 UVB, IHC

O=C(O)C(O)c1ccccc1 (centres unmarked) [Mandelic acid] was tested, and the “Protein Concentration Mean (exfoliated keratinocytes)” value (“Protein Concentration Mean” for short) [1, 10] was 0.448 mg/mL.
For CC1=C(/C=C/C(C)=C/C=C/C(C)=C/CO)C(C)(C)CCC1 [Retinol], the “CPD Positive cell Rate (%)” value ([2]; EpiKutis 3D epidermal model, UVB 600 mJ/cm^2, then 24 h, PC WY14643 50 μM) was 58.31%, the “CPD Positive cell Rate (%)” value ([2]; EpiKutis 3D epidermal model, UVB 600 mJ/cm^2, then 24 h, PC WY14643 50 μM, listed as retinol) was 58.31% and the “CPD fluorescence intensity, IOD Mean” value ([2]; EpiKutis 3D epidermal model, UVB 600 mJ/cm^2, then 24 h, NC 227349.69, PC WY14643 50 μM) was 20503.43. For the same molecule, the “CPD fluorescence intensity, Down-regulation Rate” value [2] was 90.98%, the “CPD fluorescence intensity, Down-regulation Rate” value ([2]; listed as retinol) was 90.98% and the “Type IV collagen Relative IOD/area Mean” value [3, 11] was 0.76. The “Type IV collagen Increase Rate” value ([3]; UVA + UVB, vs negative control) was 26.67%, the “Collagen fiber Relative Area Mean” value ([4]; 30 J/cm^2 UVA + 50 mJ/cm^2 UVB, Masson staining) was 0.96 and the “Collagen fiber Increase Rate” value ([4]; UVA + UVB, vs negative control) was 50.00%. For the same molecule, the “Elastin Relative IOD Mean” value ([5]; 30 J/cm^2 UVA + 50 mJ/cm^2 UVB, Victoria staining) was 1.19, the “Elastin Increase Rate” value ([5]; UVA + UVB, vs negative control) was 260.61% and the “Type III collagen Relative IOD Mean” value [6, 11] was 0.76. The “Type III collagen Increase Rate” value ([6]; UVA + UVB, vs negative control) was 28.81%, the Sunburn cells [7] was 0 and the “Sunburn cells, Inhibition Rate” value ([7]; vs NC) was 100%. The “Type XVII collagen Relative IOD Mean” value [8, 11] was 0.69, the “Type XVII collagen Increase Rate” value ([8]; UVA + UVB, vs negative control) was 176.00% and the “Hyaluronic acid Relative IOD Mean” value ([9]; 30 J/cm^2 UVA + 50 mJ/cm^2 UVB, IF) was 0.69. The “Hyaluronic acid Increase Rate” value ([9]; UVA + UVB, vs negative control) was 56.82%.
Cc1cccc(Nc2cc(Cl)nc(SCC(=O)O)n2)c1C [WY14643] showed a Sunburn cells [7] of 3.
With O=C(O)c1ccccc1O [salicylic acid] the “Protein Concentration Mean” value [1, 10] was 0.347 mg/mL and the “Protein Concentration Mean” value ([1]; BC 0.326, PC 10% salicylic acid) was 0.555 mg/mL.
